Data from a melting point compilation (Tetko et al.; mined from patent text by program, amines drawn as free bases though some values may be those of a salt).
Non-standard residues stand in square brackets, D forms with d. Residues, ends and D or L forms follow the SMILES beside them. *: point of attachment. 1Nal = N[C@@H](Cc1cccc2ccccc12)C(=O)O; Cbz = O=C(OCc1ccccc1)*

Row | SMILES | melting point [°C]
1 | CC(C)c1cccc(C(C)C)c1NC(=O)CCl | 146 to 148
2 | O=C(OCc1ccccc1)C1=CCC2C(C(O)c3ccccc3)C(=O)N12 (stereo not drawn) | 124
3 | CON=C(C#N)C(=O)NC(=O)NC1CC1 | 182
4 | Cn1c(C(F)(F)F)cc(=O)n(-c2cc(OCC(F)(F)F)c(Cl)cc2F)c1=O | 136 to 138
5 | COc1ccc(-c2c(N)oc3c(C(C)(C)C)cc(C(C)(C)C)cc23)cc1OC | 172 to 174
6 | C1=NC2=C(CCC1)CSC2 | 55 to 57
7 | N#Cc1cc(C=NO)ccc1-n1cncn1 | 198 to 200
8 | C=C(Br)CN1Cc2cccc3[nH]c(=O)n(c23)CC1C (stereo not drawn) | 150
9 | CC(C)N(CC(O)CC(c1ccccc1)c1ccccc1)C(C)C (stereo not drawn) | 55 to 59
10 | CCCCCCCCCCCCCCCCCC(=O)Oc1cc(C=CC(=O)c2ccccc2)cc([N+](=O)[O-])c1O | 112 to 118
11 | CC(O)c1cccc2c1OCO2 (stereo not drawn) | 45 to 46
12 | CC(C)(C)c1cc(Br)c2cc(C(C)(C)C)cc(Br)c2c1 | 226
13 | CC(=O)SCCC(=O)N1CC[C@H](SC(C)=O)[C@H]1C(=O)O | 145 to 148
14 | NC(=O)c1nccc(Cl)c1Cl | 174 to 175
15 | CN(C)C(=O)c1cccnc1S(=O)(=O)Cl | 114 to 117
16 | CC(C)c1[nH]c(C(=O)Nc2ccc(C(=O)O)cc2)c(C(C)C)c1C(C)C | > 300
17 | N#Cc1c(Cl)cccc1C(Br)Br | 120
18 | CCc1cc(=O)c2c([nH]1)CCCN2 | 206 to 209
19 | O=C(Oc1ccc(F)cc1)[C@H]1CC[C@H](C(F)(F)C(F)(F)C(F)(F)C(F)(F)C(F)(F)C(F)(F)C(F)(F)F)CC1 | 93.6
20 | CCC(=Cc1ccc(N(C)C)cc1Cl)[N+](=O)[O-] | 90 to 91
21 | Oc1cc(Cl)cc(Br)c1 | 66 to 68
22 | O=C(O)CN1C(=S)c2cccc3c(Br)ccc1c23 | 253
23 | Nc1ccccc1C(=O)NCCN1CCC2(CC1)C(=O)NCN2c1ccc(F)cc1 | 195
24 | COc1cc2c(cc1Br)C(C)(C)CCC2(C)C | 77 to 78
25 | CCC1=C(C(=O)O)C(C(F)(F)F)Oc2ccc(Cl)cc21 (stereo not drawn) | 171 to 172
26 | CN(O)C(=O)c1ccc(CCCCc2ccc(C(=O)N(C)O)cc2)cc1 | 157 to 159

Row | SMILES | melting point [°C]
27 | CN1C2CCC1CC(NC(=O)OC(C)(C)C)C2 (stereo not drawn) | 79 to 81
28 | Cc1cnnc2c1C(=O)CC(c1cc(Cl)sc1Cl)C2 (stereo not drawn) | 137 to 138
29 | CCOC(=O)C1=C(COC(C)=O)Nc2nc(N)nc(N)c2C1c1cccc([N+](=O)[O-])c1 (stereo not drawn) | 219
30 | Cc1cn2nc(Cl)cc(C)c2n1 | 109 to 110
31 | CC(C)(C)c1ccc(OCC(=O)O)cc1 | 93 to 95
32 | O=C(CCC1C2CC3CC(C2)CC1C3)N1C(=O)OCC1Cc1ccccc1 (stereo not drawn) | 82 to 83
33 | CC1=C(C(=O)OCC2CCCO2)C(c2cccc(Br)c2)C(C(=O)OCC2CCCO2)=C(C)N1 (stereo not drawn) | 138 to 140
34 | COc1ccc(C(=O)c2c[nH]c(=O)[nH]2)cc1OC | 257 to 259
35 | CCOc1ccc2c(c1)C(=O)CCC2 | 34 to 36
36 | COc1cc(C(=O)CS(C)(=O)=O)cc(OC)c1N(C)C(C)=O | 141 to 142
37 | COc1cc(C)c(C(=O)c2c(C)c(C)cc(C)c2C)c(OC)c1OC | 143
38 | O=C(O)C1CC(Cl)=C(c2ccccc2)CC1C(=O)O (stereo not drawn) | 82 to 90
39 | O=C1CN=C(c2ccccc2)c2cc(C(=O)c3ccc(Cl)cc3)ccc2N1 | 230
40 | CC(C)(C)c1cc(OCc2ccc(C(=O)O)cc2)cc(C(C)(C)C)c1 | 212 to 215
41 | O=C(CCCCC1CCSS1)N1CCSCC1 (stereo not drawn) | 31 to 32
42 | N#Cc1ccc2c(c1)N(C1CC1)CNS2(=O)=O | 178 to 180
43 | CCCCNC(=O)Oc1cccc(NC(=O)CC(C)(OCC)OCC)c1 | 130
44 | COc1cc(CF)nc(N)n1 | 119 to 121
45 | CN1Cc2c(F)ccc3scc(c23)S1(=O)=O | 175
46 | CSCn1c(Br)c(Br)c(C#N)c1-c1ccc(C(F)(F)F)cc1 | 140 to 145
47 | Cc1cc(O)cc(C)c1[N+](=O)[O-] | 106 to 108
48 | CCOC(=O)NC(=S)OCc1ccccc1 | 96
49 | OC(CN1CC1)c1ccccc1 (stereo not drawn) | 74 to 76
50 | CCCCCCCCCCCCCCCCOc1ccc(-c2nc(CC(=O)O)c(OCC)o2)cc1 | 89 to 91
51 | CC12CCC3=C4CCC(=O)C=C4CCC3C1C=CC2=O (stereo not drawn) | 182 to 183

Next, values leading:

Row | melting point [°C] | SMILES
52 | 91.5 to 92.5 | COc1ccc(C2CCC(=O)N2c2ccc(OC)cc2)cc1 (stereo not drawn)
53 | 204 to 206 | COc1ccc(C(=O)Nc2ccc(C3(CNC(C)=O)CC3)cc2)cc1OC
54 | 150 | CCN1c2ncc(/C=C/c3ccncc3)cc2C(=O)N(C)c2cccnc21
55 | 134 to 136 | Cc1cccc2c(N3CCSCC3)nc(Cl)cc12
56 | 194 to 196 | COC(=O)Cc1c(C)c2ccc(O)cc2oc1=O
57 | 210 to 212 | OC1(C2CC2)c2ccccc2OCc2ncccc21 (stereo not drawn)
58 | 200 | O=C(O)Cc1ccc2c3c(cccc13)C(c1ccccc1)C2 (stereo not drawn)
59 | 122 | CCOC(=O)c1ccc(NCC(C)Oc2ccc(Cl)c3ccccc23)cc1 (stereo not drawn)
60 | 77 to 78 | COCCNC(=O)c1cccc(-c2cccc3oc(Cc4ccc(F)c(Cl)c4)cc23)c1
61 | 202 to 203 | CSc1cncc(-c2nc(=O)c3ccccc3s2)n1
62 | 180 to 181 | O=C(O)C1=Cc2cc(OCc3ccccc3)c(OCc3ccccc3)cc2CCC1
63 | 192 to 193 | CC(=O)c1ccc(SCc2cc3c(cc2O)CCCO3)cc1
64 | 265 | O=C(Nc1nc(C(F)(F)F)co1)C1c2ccc(F)cc2Oc2cc(F)ccc21
65 | 120 to 123 | OCC1OC(n2cnc3c(NCC(c4ccccc4)c4ccc(F)cc4)nc(Cl)nc32)C(O)C1O (stereo not drawn)
66 | 356 to 360 | Nc1nc(-c2cc(F)cc(F)c2)nc2nc(-c3ccco3)nn12
67 | 104 to 105 | Cc1oc(-c2ccco2)nc1COc1ccc(Cn2cc(CCC(=O)O)c(OCc3ccccc3)n2)cc1
68 | 210 to 212 | Nc1nc2ccccc2n1-c1ccc(-c2ccco2)cc1
69 | 90 to 92.3 | Cc1cccc(Br)c1-c1c(C)cccc1Br
70 | 235 to 237 | O=[N+]([O-])c1cnn2c1-c1ccccc1NC2c1ccccc1O (stereo not drawn)
71 | 53 to 55 | CCOCCCOC(C)Cc1ccc(-c2ccc(O)cc2)cc1 (single isomer, unassigned; (-))
72 | 164 to 166 | O=C(c1ccccc1)N1CCNc2ncc(I)cc21
73 | 145 | O=C(NN1CCCCC1)c1nn(-c2ccc(Cl)cc2Cl)c2c1CCc1sc(Br)cc1-2
74 | 150 to 152 | CCCNC(=S)c1ccc2c(c1)N(C(C)CN1CCCC1)c1ccccc1S2 (racemic)
75 | 154 to 155 | O=C(NCCOc1ccc(CC(Oc2ccc(C(F)(F)F)cc2)C(=O)O)cc1)c1ccc(-c2ccccn2)cc1 (stereo not drawn)
76 | 181 | CC(O)c1ccc(C(O)(c2ccc3c(c2)c(-c2cccc(Cl)c2)cc(=O)n3C)c2cncn2C)cc1 (stereo not drawn)
77 | 110 to 112 | COc1ccc([C@H]2SC=C(c3ccccc3)N(CCN(C)C)C(=O)[C@H]2O)cc1

Row | melting point [°C] | SMILES
78 | 158 | CCCCc1nc(SC)c(Br)n1Cc1ccc(-c2ccccc2S(=O)(=O)N=CN(C)C)cc1
79 | 106 to 108 | CC(C)C[C@@H](C=O)NC(=O)[C@H](Cc1c[nH]cn1)NC(=O)[C@H](Cc1cccc2ccccc12)NC(=O)OCc1ccccc1 (Cbz-[1Nal]-His-Leu-aldehyde)
80 | 208 to 209 | Cc1nc(-c2ccc(Cl)cc2)c(CC(Cl)C(=O)O)o1 (stereo not drawn)
81 | 152 | CC(=O)OC1CSC(Oc2cccc(-c3cc(Cl)ccn3)c2)C(OC(C)=O)C1OC(C)=O (stereo not drawn)
82 | 189 to 194 | COc1cn(-c2ccc(N3CCC3=O)cc2F)nc(-c2ccnn2-c2ccccc2)c1=O
83 | 194 | Cn1cnnc1C(c1ccc(I)cc1)c1cc2c3c(c1)c(-c1cccc(Cl)c1)cc(=O)n3CC2 (stereo not drawn)
84 | 83 | CC(Oc1ccc(COc2ccc(Cl)cc2)cc1)C(=O)OCCOc1cc(Cl)c(Cl)cc1Cl (stereo not drawn)
85 | 314 to 318 | CCCn1c(=O)c2[nH]c(-c3ccc(C#N)cc3)nc2n(C)c1=O
86 | 138 to 140 | CC(C)(C)Nc1nc(NCc2ccccc2)c(C#N)cc1F
87 | 54 to 54.5 | CCOC(=O)n1c(SC(F)(F)F)cc(-c2ccc(F)cc2)c1-c1ccc(F)cc1
88 | 165 to 167 | CCOC(=O)c1sc2cc(OCc3cccnc3)ccc2c1Sc1ccccc1N(S(C)(=O)=O)S(C)(=O)=O
89 | 179 to 180 | COc1ccc(OCC2(Cc3c(C)nc(OC)c(C(C)C)c3C(=O)c3cc(C)cc(C#N)c3)CC2)cc1
90 | 240 to 242 | Cc1nc(-c2cccnc2)sc1-c1ccnc(Nc2ccc(N3CCOCC3)cc2)n1
91 | 158 to 161 | Fc1cc(CC2(Cc3ccnc(F)c3)c3cc(I)ccc3-c3ncccc32)ccn1
92 | 220 to 224 | N#Cc1cccc(CCn2ncc3c(=O)n(-c4ccccc4)c4ncccc4c32)c1
93 | 160 to 162 | O=C1C(=Cc2ccncc2)c2ccccc2N1c1ccccc1
94 | 90 to 91 | C=C(c1ccc(N(C)C)cc1)c1ccc(N(C)C)cc1C
95 | 211 to 212 | CCCOc1ccc(F)c2c(=O)c(-c3ccc(OC)cc3)c(CN3CCN(c4ccccn4)CC3)[nH]c12
96 | 101 to 102 | C=C(C)C(=O)Oc1ccc(S(=O)(=O)Nc2ccccc2)cc1
97 | 65 to 66 | COc1cccc2c(Oc3ccccc3)cccc12
98 | 226 to 228 | CC1COCc2nc3c(N)nc4ccc(OCC(=O)N5CCOCC5)cc4c3n21 (stereo not drawn)
99 | 157 to 159 | Oc1cc2c(-c3ccccc3)csc2c(Cl)c1Cl
100 | 179 | O=C(Nc1cccc(Cl)c1)c1cc2ccccc2s1
101 | 109 to 110 | COc1ccc2c(c1)C(=O)N(c1ccc(C(C)C)cn1)C2
102 | 94 to 96 | CC(CNC(=O)Cc1ccccc1)Oc1ccccc1 (stereo not drawn)
103 | 210 | COc1ccc(CN2C(=O)C(C)(c3cc(NS(C)(=O)=O)ccc3Cl)c3cc(Cl)ccc32)c(OC)c1 (stereo not drawn)
